Measurements as given in ChEMBL document CHEMBL1127978, “A new hydroxyethylamine class of HIV-1 protease inhibitors with high antiviral potency and oral bioavailability” (Bioorg Med Chem Lett, 1994).

Legend:
[1] = molecular target: Human immunodeficiency virus type 1 protease (Human immunodeficiency virus 1, UniProt Q72874); assay: In vitro inhibitory activity against HIV-1 protease was evaluated
[2] = system: Human immunodeficiency virus 1; assay: Inhibition of viral spread in MT-4 human lymphoid cells infected with the HIV-IIIb isolate; assay type: functional; conditions: Human immunodeficiency virus 1, lymphoid; read-out: CIC95
[3] = Oral bioavailability in dog; assay type: ADME, organism-based, Canis lupus familiaris; conditions: in vivo
[4] = Maximum plasma concentration in dog; assay type: ADME, organism-based, Canis lupus familiaris
[5] = Time taken for maximum plasma concentration in dog; assay type: ADME, organism-based, Canis lupus familiaris

| SMILES | IC50 [1] [nM] | IC95 [2] [nM] | further results |
| --- | --- | --- | --- |
| CC(C)(C)NC(=O)[C@@H]1CN(CCCc2ccccc2)CCN1C[C@@H](O)[C@H](Cc1ccccc1)NC(=O)O[C@H]1CCOC1 | 175 |  |  |
| Cc1cc(C)cc(CN2CCN(C[C@@H](O)[C@H](Cc3ccccc3)NC(=O)O[C@@H]3CCS(=O)(=O)[C@@H]3C(C)C)[C@H](C(=O)NC(C)(C)C)C2)c1 |  | 100 |  |
| Cc1cc(CN2CCN(C[C@@H](O)[C@H](Cc3ccccc3)NC(=O)O[C@@H]3CCS(=O)(=O)[C@@H]3C(C)C)[C@H](C(=O)NC(C)(C)C)C2)cc(Cl)n1 |  | 50 | bioavailability [3]: 34.8% |
| CC(C)(C)NC(=O)[C@@H]1CN(C(=O)OCc2ccccc2)CCN1C[C@H](O)[C@H](Cc1ccccc1)NC(=O)O[C@H]1CCOC1 | 12000 |  |  |
| CC(C)(C)NC(=O)[C@@H]1CN(C(=O)c2cccnc2)CCN1C[C@@H](O)[C@H](Cc1ccccc1)NC(=O)O[C@H]1CCOC1 | 371 |  |  |
| CC(C)[C@@H]1[C@H](OC(=O)N[C@@H](Cc2ccccc2)[C@H](O)CN2CCN(Cc3ccncc3)C[C@H]2C(=O)NC(C)(C)C)CCS1(=O)=O |  | 200 | Cmax [4]: 6.5 µM |
| CC(C)(C)NC(=O)[C@@H]1CN(Cc2ccncc2)CCN1C[C@@H](O)[C@H](Cc1ccccc1)NC(=O)O[C@H]1CCOC1 | 293 | 1500 |  |
| CC(C)[C@@H]1[C@H](OC(=O)N[C@@H](Cc2ccccc2)[C@H](O)CN2CCN(Cc3ccc4ccccc4c3)C[C@H]2C(=O)NC(C)(C)C)CCS1(=O)=O |  | 50 |  |
| CC(C)(C)NC(=O)[C@@H]1CN(Cc2ccc(O)cc2)CCN1C[C@@H](O)[C@H](Cc1ccccc1)NC(=O)O[C@H]1CCOC1 | 153 |  |  |
| CC(C)(C)NC(=O)[C@@H]1CN(Cc2ccccn2)CCN1C[C@@H](O)[C@H](Cc1ccccc1)NC(=O)O[C@H]1CCOC1 | 957 |  |  |
| CC(C)(C)NC(=O)[C@@H]1CN(C(=O)c2ccncc2)CCN1C[C@@H](O)[C@H](Cc1ccccc1)NC(=O)O[C@H]1CCOC1 | 132 |  |  |
| CC(C)(C)NC(=O)[C@@H]1CN(C(=O)OCc2ccccc2)CCN1C[C@@H](O)[C@H](Cc1ccccc1)NC(=O)O[C@H]1CCOC1 | 18.9 |  |  |
| CC(C)(C)NC(=O)[C@@H]1CN(Cc2ccccc2)CCN1C[C@@H](O)[C@H](Cc1ccccc1)NC(=O)O[C@H]1CCOC1 | 102 |  |  |
| CC(C)(C)NC(=O)[C@@H]1CN(CCc2ccccc2)CCN1C[C@@H](O)[C@H](Cc1ccccc1)NC(=O)O[C@H]1CCOC1 | 478 |  |  |
| CC(C)(C)NC(=O)[C@@H]1CN(C(=O)c2ccccn2)CCN1C[C@@H](O)[C@H](Cc1ccccc1)NC(=O)O[C@H]1CCOC1 | 257 |  |  |
| CC(C)(C)NC(=O)[C@@H]1CN(Cc2cccnc2)CCN1C[C@@H](O)[C@H](Cc1ccccc1)NC(=O)O[C@H]1CCOC1 | 676 | 1500 |  |
| CC(C)(C)NC(=O)[C@@H]1CN(Cc2cccc(O)c2)CCN1C[C@@H](O)[C@H](Cc1ccccc1)NC(=O)O[C@H]1CCOC1 | 482 | 400 |  |
| Cc1ccc(CN2CCN(C[C@@H](O)[C@H](Cc3ccccc3)NC(=O)O[C@@H]3CCS(=O)(=O)[C@@H]3C(C)C)[C@H](C(=O)NC(C)(C)C)C2)cn1 |  | 100 |  |
| CC(C)(C)NC(=O)[C@@H]1CN(C(=O)c2ccccc2)CCN1C[C@@H](O)[C@H](Cc1ccccc1)NC(=O)O[C@H]1CCOC1 | 414 |  |  |
| CC(C)[C@@H]1[C@H](OC(=O)N[C@@H](Cc2ccccc2)[C@H](O)CN2CCN(Cc3cccc(O)c3)C[C@H]2C(=O)NC(C)(C)C)CCS1(=O)=O |  | 100 | Tmax [5]: 25 min; Cmax [4]: 4 µM |
| CC(C)[C@@H]1[C@H](OC(=O)N[C@@H](Cc2ccccc2)[C@H](O)CN2CCN(Cc3cc(Cl)cc(Cl)c3)C[C@H]2C(=O)NC(C)(C)C)CCS1(=O)=O |  | 100 |  |
| CC(C)(C)NC(=O)[C@@H]1CN(Cc2ccccc2O)CCN1C[C@@H](O)[C@H](Cc1ccccc1)NC(=O)O[C@H]1CCOC1 | 102 |  |  |
